The text below walks through data of the NIST ThermoML archive (doi:10.1016/j.fluid.2013.01.026).

The conditions of the series: Crystal; Melting Point Apparatus.

Structures are written as SMILES. Numbers after ± are expanded uncertainties.

In the case of `O=c1cc(-c2ccc(O)c(O)c2)oc2cc(O)cc(O)c12` [5,7,3',4'-tetrahydroxyflavone], the Normal melting temperature came to 337.38 ± 0.2 °C.
The value for `C[C@@H]1O[C@@H](OC[C@H]2O[C@@H](Oc3c(-c4ccc(O)c(O)c4)oc4cc(O)cc(O)c4c3=O)[C@H](O)[C@@H](O)[C@@H]2O)[C@H](O)[C@H](O)[C@H]1O` [rutin] was 177.20 ± 0.2 °C.
